The test deals with MDA-MB-468 breast. As to the kind of experiment: growth of human tumour cells (NCI), 48 h.

The structures appear in SMILES notation. Several values for one entry are separate records, joined by “and”; a condition that tells them apart may be missing. Identical values can stand only once.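 48-hour exposure; five concentrations; linearly interpolated endpoints. GI50 is the concentration that inhibits growth by half. Definition used: TGI = concentration required for complete inhibition of growth.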

As for `O=C(Nc1ccc(F)cc1)Nc1ccc(Cl)c([N+](=O)[O-])c1`, the GI50 was 2150 nM and the TGI came to 7.54 µM.

On to `CN1CCCCC1CCN1c2ccccc2Sc2ccc(Cl)cc21` (configuration not stated), for which the GI50 is 1940 nM and the TGI is 4.44 µM.

In the case of `CCN1/C(=C\c2cc[n+](CC)c3ccccc23)C=Cc2ccccc21`, the GI50 was 109 nM and the TGI turned out to be 0.519 µM.

`Cc1nc2sccn2c1-c1csc(Nc2ccccc2Cl)n1`: the GI50 is 719 nM and the TGI turned out to be 5.84 µM.

With `CN(C)c1ccc(/C=C\C2=[N+](C)c3ccccc3C2(C)C)cc1`, the GI50 was 287 nM and the TGI is 5.08 µM.

In the case of `NS(=O)(=O)OC[C@@H]1C[C@@H](n2ccc3c(NC4CCc5ccccc54)ncnc32)C[C@@H]1O` (some centres not stated), the GI50 was 1310 nM and the TGI is 50.2 µM.

As to `COc1ccc([C@H]2[C@H](O)C(=O)N2c2cc(OC)c(OC)c(OC)c2)cc1F`, the GI50 was < 10 nM and the TGI is > 100 µM.

In the case of `Cc1cc(-c2nc(C(=O)Nc3cc4oc(N5CCOCC5)nc4nc3N3CC[C@@H](O)C3)co2)ccn1`, the GI50 was 13300 nM and the TGI came out at 64.8 µM.

Regarding `C=CC(=O)Nc1cc(Nc2ncc(C(=O)OC(C)C)c(-c3cn(C)c4ccccc34)n2)c(OC)cc1N(C)CCN(C)C`, the GI50 was < 10 nM and the TGI worked out at 0.069 µM.

For `COc1cccc(-c2cc(-c3cccc(NS(C)(=O)=O)c3)nc(N)c2C#N)c1O`, the GI50 was 421 nM and the TGI was 4.23 µM.

As to `Cc1ccnc2c1ccc1c(C)ccnc12`, the GI50 is 360 nM and the TGI amounted to 2.72 µM.

For `COc1cc(/C=N\NC(=O)CN2CCN(c3cc4c(cc3F)c(=O)c(C(=O)N/N=C/c3cc(OC)c(OC)c(OC)c3)cn4C3CC3)CC2)cc(OC)c1OC`, the GI50 is 221 nM and the TGI was 0.535 µM.

Regarding `C=CCO[C@H]1CO[C@H]2[C@@H]1OC[C@@H]2Oc1ccc(Nc2ccnc(Nc3ccc(O[C@H]4CO[C@H]5[C@@H]4OC[C@@H]5OCC=C)c(Cl)c3)n2)cc1Cl`, the GI50 was 1620 nM and the TGI was determined as 3.13 µM.

`COC1/C=C/OC2(C)Oc3c(C)c(O)c4c(O)c(c(/C=N/Nc5ccc([N+](=O)[O-])cc5[N+](=O)[O-])c(O)c4c3C2=O)NC(=O)C(C)=C/C=C/C(C)C(O)C(C)C(O)C(C)C(OC(C)=O)C1C` (configuration not stated): the GI50 is 1110 nM and the TGI was found to be 2.86 µM.

Regarding `FC(F)(F)c1cccc(Nc2nc(-c3ccccc3)nc3ncccc23)c1`, the GI50 is 2420 nM and the TGI was 7.71 µM.

Turning to `CC1CCc2nc[nH]c(=O)c21` (configuration not stated), the GI50 is > 100000 nM and the TGI is > 100 µM.

Turning to `Cc1ccc(CN2CCC(C(=O)Nc3ccc(-c4cc5ccccc5[nH]4)cc3)CC2)o1`, the GI50 was 83400 nM and the TGI is > 100 µM.

As for `Fc1[nH]nc2ccc([C@@H]3Nc4ccc5[nH]ncc5c4[C@H]4C5CCC(C5)[C@@H]34)cc12` (some centres not stated), the GI50 is 361 nM and the TGI was 12 µM.

As for `COC(=O)/C=C1\S/C(=N\NC(=O)c2cc3ccc2/C=C\c2ccc(cc2)/C=C\3)N(c2ccccc2)C1=O`, the GI50 was 1840 nM and the TGI is 3.74 µM.

For the molecule `Nc1c(C(=O)c2cccc(CCS(N)(=O)=O)c2)cnn1-c1ccc(F)cc1`, the GI50 was > 17700 nM and the TGI was > 25 µM.

Take `COc1cccc(C2c3cc4c(cc3OC(C)(N3CCCC3)C2C)OCO4)c1O` (configuration not stated): the GI50 is 4660 nM and the TGI is > 100 µM.

On to `COc1cc2c(c(OC)c1OC)-c1ccc(NNC(N)=S)c(=O)cc1[C@@H](NC(C)=O)CC2`, for which the GI50 was 233 nM.

Regarding `C[C@@H](Oc1cc(-n2cnc3ccc(CN4CCN(C)CC4)cc32)sc1C(N)=O)c1ccccc1C(F)(F)F`, the GI50 was < 10 nM and 4 nM; the TGI is 1.4 µM and 2.87 µM.

As to `Cn1cc(C2=C(c3c4n(c5ccccc35)CCCCC4)C(=O)NC2=O)c2ccccc21`, the GI50 is 1170 nM and the TGI was > 19.9 µM.

(Values after PubChem BioAssay (NCI).)
